Tested on: NOMO1
Assay: cell viability relative to DMSO control; higher = less cytotoxic
Settings: 48 h
Method in brief: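 Library compounds in DMSO were pin-dosed into 1536-well plates (5 μl) holding NOMO1 or SEM (500 cells/well) or P12-Ichikawa (1000 cells/well) leukemia cells, across an 11-point threefold series of 47 μM to 0.79 nM. Each cell line had been adapted for at least four passages in each medium. CellTiter-Glo One luminescence was read after 48 h at 37°C. Viability is the per-plate percentage relative to DMSO wells, with cell-free wells as background.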

[1] = HPLM + 10% dialyzed FBS, 0.000781 µM
[2] = HPLM + 10% dialyzed FBS, 0.00234 µM
[3] = HPLM + 10% dialyzed FBS, 0.00702 µM
[4] = HPLM + 10% dialyzed FBS, 0.0211 µM
[5] = HPLM + 10% dialyzed FBS, 0.0632 µM
[6] = HPLM + 10% dialyzed FBS, 0.19 µM
[7] = HPLM + 10% dialyzed FBS, 0.569 µM
[8] = HPLM + 10% dialyzed FBS, 1.71 µM
[9] = HPLM + 10% dialyzed FBS, 5.12 µM
[10] = HPLM + 10% dialyzed FBS, 15.4 µM
[11] = HPLM + 10% dialyzed FBS, 46.1 µM
[12] = RPMI 5 mM glucose + 10% FBS, 0.000781 µM
[13] = RPMI 5 mM glucose + 10% FBS, 0.00234 µM
[14] = RPMI 5 mM glucose + 10% FBS, 0.00702 µM
[15] = RPMI 5 mM glucose + 10% FBS, 0.0211 µM
[16] = RPMI 5 mM glucose + 10% FBS, 0.0632 µM
[17] = RPMI 5 mM glucose + 10% FBS, 0.19 µM
[18] = RPMI 5 mM glucose + 10% FBS, 0.569 µM
[19] = RPMI 5 mM glucose + 10% FBS, 1.71 µM
[20] = RPMI 5 mM glucose + 10% FBS, 5.12 µM
[21] = RPMI 5 mM glucose + 10% FBS, 15.4 µM
[22] = RPMI 5 mM glucose + 10% FBS, 46.1 µM
[23] = RPMI 5 mM glucose + 10% dialyzed FBS, 0.000781 µM
[24] = RPMI 5 mM glucose + 10% dialyzed FBS, 0.00234 µM
[25] = RPMI 5 mM glucose + 10% dialyzed FBS, 0.00702 µM
[26] = RPMI 5 mM glucose + 10% dialyzed FBS, 0.0211 µM
[27] = RPMI 5 mM glucose + 10% dialyzed FBS, 0.0632 µM
[28] = RPMI 5 mM glucose + 10% dialyzed FBS, 0.19 µM
[29] = RPMI 5 mM glucose + 10% dialyzed FBS, 0.569 µM
[30] = RPMI 5 mM glucose + 10% dialyzed FBS, 1.71 µM
[31] = RPMI 5 mM glucose + 10% dialyzed FBS, 5.12 µM
[32] = RPMI 5 mM glucose + 10% dialyzed FBS, 15.4 µM
[33] = RPMI 5 mM glucose + 10% dialyzed FBS, 46.1 µM

SMILES | cell viability [1] | cell viability [2] | cell viability [3] | cell viability [4] | cell viability [5] | cell viability [6] | cell viability [7] | cell viability [8] | cell viability [9] | cell viability [10] | cell viability [11] | cell viability [12] | cell viability [13] | cell viability [14] | cell viability [15] | cell viability [16] | cell viability [17] | cell viability [18] | cell viability [19] | cell viability [20] | cell viability [21] | cell viability [22] | cell viability [23] | cell viability [24] | cell viability [25] | cell viability [26] | cell viability [27] | cell viability [28] | cell viability [29] | cell viability [30] | cell viability [31] | cell viability [32] | cell viability [33]
CC(NC1=CC=CC=C1)C\2=C\C(=C/N3C(=O)\C=C(/N=C23)N4CCOCC4)C (centres undefined) | 91.6% | 106% | 115% | 105% | 114% | 117% | 125% | 118% | 108% | 99.6% | 87.6% | 92.7% | 96.3% | 97.7% | 109% | 109% | 102% | 115% | 99.8% | 108% | 105% | 108% | 95.7% | 92.9% | 111% | 110% | 105% | 116% | 109% | 108% | 94.7% | 96.7% | 83%
COc1cc2nc(N(C)CCCNC(=O)C3CCCO3)nc(N)c2cc1OC (centres undefined) | 63.4% | 82.7% | 99.4% | 77.8% | 96.3% | 90.6% | 79.7% | 89.7% | 31.3% | 28% | 20% | 70.7% | 74% | 71.9% | 75.4% | 73.2% | 81.8% | 72.1% | 71.9% | 33.2% | 36% | 10% | 61.6% | 76.5% | 68.8% | 85% | 77.6% | 77.9% | 75.4% | 87.4% | 51.9% | 61.9% | 15.1%
COC1=CC=CC2=C1C(=NC(=N2)C3=CC=CS3)NN4C(=O)\C=C(C)/C4=O | 95.7% | 103% | 94% | 87.7% | 77.6% | 60.3% | 44.1% | 38.2% | 8.17% | 1.91% | 2.25% | 90% | 88.4% | 92.9% | 84.8% | 92.3% | 78.2% | 56.2% | 48.2% | 14.4% | 3.32% | 4.06% | 81.1% | 85.3% | 94.5% | 82.4% | 74.6% | 68.8% | 50.4% | 38.9% | 16.9% | 4.27% | 2.63%
COc1cnc(N[S+](=O)([O-])c2ccc(N)cc2)nc1 | 111% | 114% | 106% | 125% | 125% | 119% | 114% | 130% | 114% | 84.5% | 31.1% | 122% | 118% | 114% | 112% | 124% | 131% | 138% | 128% | 125% | 110% | 48.2% | 110% | 118% | 123% | 125% | 121% | 127% | 114% | 125% | 98.5% | 97.5% | 63.5%
CC[C@H](CC[C@@H](C)[C@H]1CC[C@H]2[C@@H]3C\C=C/4C[C@@H](O)CC[C@]4(C)[C@H]3CC[C@]12C)C(C)C | 97.3% | 126% | 123% | 117% | 131% | 124% | 114% | 107% | 95.6% | 55.5% | 35.6% | 103% | 114% | 113% | 106% | 108% | 115% | 102% | 103% | 96.1% | 92.4% | 22.3% | 105% | 120% | 114% | 107% | 116% | 107% | 97.3% | 102% | 93.5% | 72.5% | 26.3%
Cc1c(CCOc2ccc(C(=O)O)cc2)c2cc(Cl)ccc2n1C(c1ccccc1)c1ccccc1 | 119% | 121% | 111% | 116% | 109% | 107% | 115% | 123% | 105% | 95% | 73.8% | 108% | 103% | 108% | 108% | 112% | 97.9% | 94.8% | 74.8% | 98.7% | 99.9% | 93.6% | 111% | 124% | 125% | 120% | 116% | 106% | 98.6% | 115% | 113% | 101% | 97.3%
OC(=O)C1=CC=C(NC2=NC3=C(C\N=C(/C4=CC(=CC=C34)Cl)C5=C(F)C=CC=C5F)C=N2)C=C1 | 87.2% | 96.6% | 104% | 122% | 97.9% | 103% | 87.6% | 45.2% | 44% | 59.1% | 72% | 81.9% | 96.8% | 80% | 91.3% | 90.4% | 79.9% | 82.3% | 32.8% | 37.8% | 56.4% | 56.4% | 93.2% | 95.7% | 89.2% | 94.1% | 89.8% | 97.8% | 77.3% | 35% | 38.8% | 55.9% | 61.4%
CN(C)c1ccc(O)c2c1C[C@H]1C[C@H]3[C@H](N(C)C)C(O)=C(C(N)=O)C(=O)[C@@]3(O)C(O)=C1C2=O | 103% | 105% | 105% | 118% | 117% | 125% | 99.8% | 111% | 101% | 100% | 113% | 103% | 98% | 109% | 98.1% | 114% | 122% | 107% | 109% | 101% | 98.5% | 107% | 96% | 93.6% | 101% | 88.7% | 95.3% | 96% | 92.8% | 102% | 97.3% | 98.9% | 113%
CC(=O)Nc1ccc(OC[C@](C)(O)C(=O)Nc2ccc([N+](=O)[O-])c(C(F)(F)F)c2)cc1 | 66.3% | 68.2% | 72.9% | 70.6% | 87.7% | 80.2% | 88.4% | 83.5% | 83.4% | 77.8% | 82.4% | 70.5% | 76.9% | 75.4% | 82.8% | 87% | 83% | 82.8% | 88.2% | 76.2% | 86.9% | 82.2% | 72% | 78.1% | 87.3% | 83.1% | 92.7% | 86.1% | 85.1% | 85.6% | 85.2% | 92.5% | 78%
c1cncc(CN2CCC(n3ncc4c(N5CCOCC5)nc(-c5ccc6[nH]ccc6c5)nc43)CC2)c1 | 92.1% | 107% | 92.5% | 94.8% | 84.4% | 89.1% | 78.6% | 72.7% | 60.1% | 44% | 35% | 88.4% | 80.4% | 88.1% | 92.7% | 87.8% | 82.2% | 83.6% | 82.8% | 80.5% | 49.3% | 15.7% | 87.3% | 83.9% | 96.4% | 97.7% | 86.2% | 85.2% | 69.2% | 70.4% | 71.2% | 46.6% | 20%
C\C1=C\C(=O)OC2=C1C=CC(=C2)O | 119% | 129% | 122% | 133% | 120% | 130% | 120% | 118% | 113% | 110% | 104% | 116% | 122% | 117% | 111% | 119% | 122% | 105% | 120% | 117% | 123% | 106% | 117% | 118% | 120% | 118% | 110% | 108% | 104% | 102% | 109% | 113% | 90.7%
C[C@@H](NC1=CC=CC=C1C(O)=O)C/2=C/C(=C\N3C(=O)/C=C(\N=C23)N4CCOCC4)C | 81.1% | 88.7% | 89.8% | 93.6% | 99.7% | 81.6% | 82.6% | 61.7% | 40.3% | 29.4% | 11.7% | 79.1% | 73.6% | 79.9% | 91.2% | 88.2% | 87.5% | 78% | 77.7% | 48.3% | 27.7% | 11.1% | 74.8% | 82.9% | 95.2% | 88.9% | 87.8% | 93.4% | 83% | 65.2% | 41.8% | 33.1% | 7.82%
Cc1ccccc1C(C(=O)NC1CCCCC1)N(C(=O)Cn1ccnc1C)c1cccc(F)c1 (centres undefined) | 96.4% | 93.1% | 122% | 119% | 123% | 111% | 108% | 90% | 100% | 99.2% | 89.4% | 88.6% | 93.9% | 102% | 91.9% | 93.9% | 109% | 106% | 91.7% | 90.7% | 86% | 97.3% | 104% | 85.9% | 104% | 106% | 99.1% | 116% | 100% | 91% | 91.4% | 93.3% | 80.7%
